According to patent EP0007206A1, “Phenethanolamines, their formulations, preparation and use” (ELI LILLY AND COMPANY, priority 1978, dated 1980):
Counter-ions that a name gives are not always drawn.

Experiments:
[1] = tested on: Chinese hamster ovary cells; experiment: mitotic arrest assay (mitotic inhibitory activity); assay type: cell-based; settings: 20.0 mcg/ml, five hours contact
Method: One such test, for example, was a determination of mitotic inhibitory activity. The compounds of this invention have the ability to arrest cultured cells at the mitotic phase (metaphase) of the cell cycle without apparent effect on other stages of the cell cycle. Such mitotic inhibitory activity is an indication that the compounds may have a beneficial effect on the biological activities of antineoplastic drugs. […] The compounds of the invention were administered at 20 mcg./ml. and the number of cells arrested at the mitotic phase out of 1000 cultured cells were counted and compared to the controls which underwent mitotic arrest without a drug present. Two evaluations were carried out for each test compound. The results reported are the percent of cells held at mitosis after five hours contact with the compound of this invention.

[2] = tested on: aly fast tumor strain of bronchiogenic carcinoma of the lung; experiment: combination chemotherapy with cytoxan, implanted bronchiogenic carcinoma (Table 4); assay type: in vivo, hamsters; settings: cytoxan 10 mg./kg. i.p. once daily, A 10 mg./kg. s.c. twice daily
Method: (§1) In a typical experiment, laboratory mice were infected by a subcutaneous implantation of a tumor tissue in the axillary region of the body. The implantations were accomplished by means of a trocar. Initial tumor size in each animal generally was about 2 square millimeters. Tumor size was then measured periodically as length and width in mm. Typical tumor systems implanted included adenocarcinoma 755, an Aly Fast strain of bronchiogenic carcinoma, and mecca lymphosarcoma. Oncolytic agents utilized in the tests to determine the potentiating effects of the compounds of the invention.include cytoxan, 5-fluorouracil, vindesine, methotrexate and 6-mercaptopurine. Twenty or thirty infected animals generally were selected as controls and received placebo. Ten infected animals normally were selected to receive a known oncolytic agent. Another ten infected animals were administered the known oncolytic agent in addition to a compound of this invention.
In a similar test, hamsters were infected with an aly fast tumor strain of bronchiogenic carcinoma of the lung. Cytoxan was administered to one group of infected animals at an intraperitoneal dose of 10 mg./kg. once daily. A compound of this invention, N-(2-phenyl-2-hydroxyethyl)-l,l-dimethyl-3-(4-hydroxyphenyl)propylaminium bromide (designated in Table 4 as A), caused a significant synergistic effect when co-administered with cytoxan. Cytoxan was administered i.p. once daily at 10 mg./kg. to the animals receiving the combination chemotherapy, and compound A was administered subcutaneously at the rate of 10 mg./kg. twice daily. It should be noted that the average tumor size for the animals receiving the combination of cytoxan and N-(2-phenyl-2-hydroxyethyl)-l,l-dimethyl-3-(4-hydroxyphenyl)-propylaminium bromide was only 20 square millimeters after the nineteenth day of treatment, while the average tumor size for the group receiving cytoxan was about the same as that for the animals receiving placebo, namely about 1340 square millimeters.

[3] = tested on: 755 adenocarcinoma; experiment: combination chemotherapy with cytoxan at varying doses, implanted 755 adenocarcinoma (Table 8); assay type: in vivo
Method: as §1
A similar study was carried out with cytoxan at varying doses and the combination of cytoxan and N-(2-phenyl-2-hydroxyethyl)-l,l-dimethyl-3-(4-aminocarbonylphenyl)propylaminium chloride. A group of ten animals infected with the 755 adenocarcinoma were given cytoxan intraperitoneally at the rate of 25 mg./kg. once per day on days 5, 9 and 13 of the test. Another group of infected animals received cytoxan at 12.5 mg./kg. once per day on days 5, 9 and 13. A third group of infected animals received the combination of cytoxan, given i.p. at 12.5 mg./kg. on days 5, 9 and 13, and the compound of this invention (compound B) given subcutaneously twice daily on days 5 through 14 at the dose of 7.5 mg./kg. As indicated by the data, all of the control animals and those receiving the oncolytic agent alone were dead after 73 days. In contrast, six of the ten animals which received combination chemotherapy were still living after 73 days of the test, and all of those still living were tumor free.

[4] = tested on: adenocarcinoma (CA 755 tumor); experiment: combination chemotherapy with vindesine, implanted adenocarcinoma (Table 5); assay type: in vivo, mice; settings: vindesine 0.6 mg./kg. i.p. days 1, 5, 9, 13, B 7.5 mg./kg. i.p. twice daily first 15 days
Method: as §1
The animals receiving combination chemotherapy were administered vindesine intraperitoneally according to the above-indicated dosage regimen, and N-(2-phenyl-2-hydroxyethyl)-1,1-dimethyl-3-(4-aminocarbonylphenyl)propylaminium chloride was administered intraperitoneally at the rate of 7.5 mg./kg. twice daily for the first 15 days of the test. Under column I of each of the indicated days of measurement is given the average tumor size in square millimeters for each test group. Column II under each of the indicated days of measurement provides the number of tumor free animals out of those still living on that particular day in each test group. […] In contrast, all of the control animals and those receiving vindesine alone had died by day 40, and none were tumor free after the thirteenth day of the test.

[5] = Day 5, cytoxan 12.5 mg./kg. i.p. days 5, 9, 13, B 7.5 mg./kg. s.c. twice daily days 5 through 14
[6] = Day 5, cytoxan 25 mg./kg. i.p. once per day on days 5, 9, 13
[7] = Day 12, cytoxan 12.5 mg./kg. i.p. days 5, 9, 13, B 7.5 mg./kg. s.c. twice daily days 5 through 14
[8] = Day 12, cytoxan 25 mg./kg. i.p. once per day on days 5, 9, 13
[9] = Day 17, cytoxan 12.5 mg./kg. i.p. days 5, 9, 13, B 7.5 mg./kg. s.c. twice daily days 5 through 14
[10] = Day 17, cytoxan 25 mg./kg. i.p. once per day on days 5, 9, 13
[11] = Day 23, cytoxan 12.5 mg./kg. i.p. days 5, 9, 13, B 7.5 mg./kg. s.c. twice daily days 5 through 14
[12] = Day 23, cytoxan 25 mg./kg. i.p. once per day on days 5, 9, 13
[13] = Day 29, cytoxan 12.5 mg./kg. i.p. days 5, 9, 13, B 7.5 mg./kg. s.c. twice daily days 5 through 14
[14] = Day 29, cytoxan 25 mg./kg. i.p. once per day on days 5, 9, 13

CNC(=O)c1ccc(CCC(C)(C)NCC(O)c2ccccc2)cc1 (racemic) [N-(2-phenyl-2-hydroxyethyl)-l,l-dimethyl-3-(4-methylaminocarbonylphenyl)propylaminium chloride]
Mitotic Index (percent of cells held at mitosis) ([1]; first of two evaluations): 36% | Mitotic Index (percent of cells held at mitosis) ([1]; second of two evaluations): 38%

O=P1(N(CCCl)CCCl)NCCCO1 (centres unmarked) [Cytoxan, cytoxan]
number of surviving animals out of test group ([2]; Day 0): 10/10 | average tumor size ([2]; Day 8): 560 square millimeters | number of surviving animals out of test group ([2]; Day 8): 10/10 | average tumor size ([2]; Day 13): 950 square millimeters | number of surviving animals out of test group ([2]; Day 13): 9/10 | average tumor size ([2]; Day 19): 1340 square millimeters | number of surviving animals out of test group ([2]; Day 19): 6/10 | average tumor size ([2]; Day 19, listed as cytoxan): about 1340 square millimeters | number of tumor free animals out of those still living ([3]; Day 0, cytoxan 12.5 mg./kg. i.p. days 5, 9, 13, B 7.5 mg./kg. s.c. twice daily days 5 through 14): 0/10 | number of tumor free animals out of those still living ([3]; Day 0, cytoxan 25 mg./kg. i.p. once per day on days 5, 9, 13): 0/10 | average tumor size [3, 5]: 130 | number of tumor free animals out of those still living [3, 5]: 0/10 | average tumor size [3, 6]: 80 | number of tumor free animals out of those still living [3, 6]: 0/10 | average tumor size [3, 7]: 190 | number of tumor free animals out of those still living [3, 7]: 0/10 | average tumor size [3, 8]: 60 | number of tumor free animals out of those still living [3, 8]: 1/10 | average tumor size [3, 9]: 300 | number of tumor free animals out of those still living [3, 9]: 0/10 | average tumor size [3, 10]: 60 | number of tumor free animals out of those still living [3, 10]: 4/10 | average tumor size [3, 11]: 600 | number of tumor free animals out of those still living [3, 11]: 1/9 | average tumor size [3, 12]: 200 | number of tumor free animals out of those still living [3, 12]: 2/9 | average tumor size [3, 13]: 800 | number of tumor free animals out of those still living [3, 13]: 0/4 | average tumor size [3, 14]: 570 | number of tumor free animals out of those still living [3, 14]: 0/4 | number of tumor free animals out of those still living ([3]; Day 73, cytoxan 12.5 mg./kg. i.p. days 5, 9, 13, B 7.5 mg./kg. s.c. twice daily days 5 through 14): 0/0 | number of tumor free animals out of those still living ([3]; Day 73, cytoxan 25 mg./kg. i.p. once per day on days 5, 9, 13): 0/0

CN(C)C(=O)c1ccc(CCC(C)(C)NCC(O)c2ccccc2)cc1 (racemic) [N-(2-phenyl-2-hydroxyethyl)-1,1-dimethyl-3-(4-dimethylaminocarbonylphenyl)propylaminium oxalate]
Mitotic Index (percent of cells held at mitosis) ([1]; first of two evaluations): 40% | Mitotic Index (percent of cells held at mitosis) ([1]; second of two evaluations): 46%

CC(C)(CCc1ccc(C(N)=O)cc1)NCC(O)c1ccccc1 (centres unmarked) [N-(2-Phenyl-2-hydroxyethyl)-1,1-dimethyl-3-(4-aminocarbonylphenyl)propylamine]
Mitotic Index (percent of cells held at mitosis) ([1]; first of two evaluations): 57% | Mitotic Index (percent of cells held at mitosis) ([1]; second of two evaluations): 45%

CC(C)(CCc1ccc(O)cc1)NCC(O)c1ccccc1 (racemic) [N-(2-Phenyl-2-hydroxyethyl)-l,l-dimethyl-3-(4-hydroxyphenyl)propylamine]
Mitotic Index (percent of cells held at mitosis) ([1]; first of two evaluations): 36% | Mitotic Index (percent of cells held at mitosis) ([1]; second of two evaluations): 33%

CCC1(O)CC2CN(CCc3c([nH]c4ccccc34)C(C(=O)OC)(c3cc4c(cc3OC)N(C)C3C(O)(C(N)=O)C(O)C5(CC)C=CCN6CCC43C65)C2)C1 (centres unmarked) [VDS, vindesine]
number of tumor free animals out of those still living ([4]; Day 0): 0/10 | average tumor size ([4]; Day 8): 35 square millimeters | number of tumor free animals out of those still living ([4]; Day 8): 3/9 | average tumor size ([4]; Day 13): 170 square millimeters | number of tumor free animals out of those still living ([4]; Day 13): 0/8 | average tumor size ([4]; Day 19): 300 square millimeters | number of tumor free animals out of those still living ([4]; Day 19): 0/8 | average tumor size ([4]; Day 26): 620 square millimeters | number of tumor free animals out of those still living ([4]; Day 26): 0/6 | number of tumor free animals out of those still living ([4]; Day 40): 0/0
